In brackets after ≈: the same amount, converted by molar mass. Read-outs that look alike come from different tables or passages of the source.
Key:
Solubility Assay (HPLC) = type: physicochemical; details: 20 mM HEPES, 100 mM NaCl, pH 7.5, 18-24 hours at ambient temperature
Description: A 20 mM stock solution was made for each compound in DMSO. To measure solubility, 0.03-0.05 mL of the stock was added to 0.27 mL 20 mM HEPES, 100 mM NaCl, pH 7.5. The solution was mixed and rotated 18-24 hours at ambient temperature. The next day, solutions were centrifuged for 10 min at 20,000×g at […] to remove insoluble, solid material. Next, 100 μL of the supernatant containing the soluble compound was added to 900 μL DMSO and High Performance Liquid Chromatography was performed as described in Table 1 and either HIPLC gradient 1 (Table 2) or HIPLC gradient 2 (Table 3). For each analog, a 200 μM standard and a 20 μM standard were prepared and run in parallel (standards were dissolved completely in […]). The amount ofLcompound in the experimental sample was calculated by comparing the area under the curve for compound peak to the area for the closest standard and correcting for dilution.

[1] = test system: human SK—OV-3 ovarian cancer cells; assay: Cellular Activity Assay (cytotoxicity, crystal violet); type: cell-based; details: SK—OV-3 cells, treated for 48 hr, 0.1-100 μM, crystal violet absorbance at 540 nm
Source text: (§1) To test the activity of compounds, two complimentary assays were used as described below. The Biochemical PRX3 Inhibition Assay tests the ability of each compound to crosslink PRX3 in a simple, in vitro system. In the Cellular Activity Assay, we are testing the ability of compounds to kill SK—OV-3 ovarian cancer cells.
The Cellular Activity Assay measures the EC50 of each compound in human SK—OV-3 ovarian cancer cells TS to be taken into the cell, transported to the mitochondria, and crosslink PRX3.
The cytotoxicity of compounds was measured as described in Nelson et al. (2021) Antioxidants (Basel) 10, 150; Cunniff et al. (2015) PloS one 10, e0127310; and Newick et al. (2012) PloS one 7, e39404. SK—OV-3 is an adherent, epithelial, adenocarcinoma cell line obtained from ATCC (ref #: HTB-77). SK—OV-3 cells are resistant to the commonly used chemotherapeutics, cis-platinum and doxorubicin. For this […], SK—OV-3 cells were plated in a 96-well plate. After 24 h recovery, the cells were treated for 48 hr with multiple concentrations of each compound ranging from 0.1-100 μM.
Cells were washed with PBS to remove dead cells and the remaining live cells were fixed with 3.0% formaldehyde and stained with 0.1% crystal violet. The amount of crystal violet was determined by reading the absorbance at 540 nm (crystal violet dye dissolved in 100% methanol) using a plate reader. The signal for crystal violet dye is proportional to the biomass of remaining live cells. GraphPad Prism9 software was used to calculate the effective inhibitory concentration (EC50) of test compounds. Results for each compound, are normalized to the amount of cells in control wells treated with the equivalent concentration of DMSO (negative control). TS or Compound 4 were included in each set of assays as a positive control.

purified human PRX3 = molecular target: T1, purified human PRX3 (Homo sapiens, UniProt P30048); assay: Biochemical PRX3 Inhibition Assay (non-reducible crosslink by SDS PAGE + single adduct by MALDI-TOF MS); details: 100 μM PRX3 with TRX2/thioredoxin reductase/NADPH system and hydrogen peroxide, 1-2 hr at 37° C.
T1 construct: made in house
T1 sequence (P30048 62-256): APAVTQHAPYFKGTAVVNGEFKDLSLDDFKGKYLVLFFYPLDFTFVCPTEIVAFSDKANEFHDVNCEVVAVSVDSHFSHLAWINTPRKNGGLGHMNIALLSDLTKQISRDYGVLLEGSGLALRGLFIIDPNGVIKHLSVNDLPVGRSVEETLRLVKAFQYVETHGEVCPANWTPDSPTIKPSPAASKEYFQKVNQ
Source text: The compounds described herein generally react with two essential cysteine residues in the mitochondrial peroxidase PRX3, leading to the formation of a non-reducible, covalent crosslink of two PRX3 monomers. This crosslink inactivates PRX3. Increased PRX3 crosslink is associated with mitochondrial stress, increased cell death in cell models of malignant mesothelioma and is associated with decreased tumor volume in a mouse model. Cunniff et al. (2015) PloS one 10, e0127310.
as §1
This assay tests the ability of each compound to form a covalent adduct with PRX3. The assay is performed as described in Nelson et al. (2021) Antioxidants (Basel) 10, 150; and Cunniff et al. (2015) PloS one 10, e0127310, and follows the appearance of non-reducible PRX3 crosslinks by SDS PAGE gel electrophoresis and follows the appearance of single PRX3 adducts by mass spectrometry. For this assay, purified human PRX3, hydrogen peroxide (the PRX3 substrate) and all the components required to enable PRX3 to catalytically cycle (thioredoxin-thioredoxin reductase-NAPDH system) are included (details below).
The biochemical PRX3 Inhibition assay contains 100 μM PRX3, 50 μM human TRX2, 0.5 μM mouse thioredoxin reductase, and a NADPH regenerating system composed of 3.2 mM glucose 6-phosphate, 3.2 U/ml glucose 6-phosphate dehydrogenase and 0.4 mM NADPH. Samples are incubated for 1-2 hr at 37° C. with either 0.2 mM TS (positive control), compounds or an equivalent volume of DMSO (negative control). During this incubation, hydrogen peroxide is added to induce turnover of PRX3. Reactions are stopped by the addition of a buffer containing 100 mM dithiothreitol (to break disulfide bonds) and SDS (detergent to denature proteins). NADPH, Glucose 6-Phosphate, and glucose 6-phosphate dehydrogenase were purchased from Sigma Aldrich. PRX3, thioredoxin, and thioredoxin reductase were all purified to >98% purity in the Lowther laboratory according to protocols referenced in Nelson et al. (2021) Antioxidants (Basel) 10, 150; and Cunniff et al. (2015) PloS one 10, e0127310.
To measure the amount of PRX3 crosslink, proteins in the reaction were separated by SDS-polyacrylamide gel electrophoresis and stained for total protein using GelCode Blue (Life Technologies). The amount of unmodified PRX3 and TS-PRX3 crosslink was measured by densiometric analysis of the signal for the PRX3 band running at the MW of a PRX3 crosslink (˜46 kDa) compared to the PRX3 signal at the MW of the un-modified PRX3 (−23 kD).
To measure covalent adduct formation on a single PRX3 monomer, each reaction was exchanged into a mass spectrometry compatible buffer containing 40 mM ammonium citrate, pH 8.3 made in HPLC water. Sample was mixed 1:1 with a matrix solution containing 30 mg/mL sinapinic acid in 70% (vol/vol) acetonitrile, 0.2% formic acid and spotted to onto the sample plate. PRX3 mass was measured by MALDI-TOF MS analysis on a Bruker Daltonics MALDI-TOF MS spectrometer. Spectra were analyzed in FLEXAnalysis Software. The intensity of the reduced PRX3 peak (SH) and intensity of the analog adduct peak was determined and corrected for background signal at the adduct peak in the DMSO control. The fraction of single analog adduct in the monomer peak was determined by dividing the intensity of the adduct peak by the summed intensity of the SH and adduct peaks.

[2] = HEPES/NaCl buffer, aqueous with cosolvent or surfactant or cyclodextrin, kinetic from dmso stock, read-out: Solubility

Row | solubility (Solubility Assay (HPLC); [2]) | PRX3 Inhibition (Crosslink + Mono-adduct) (purified human PRX3) | Structure (SMILES) | EC50 ([1]; Homo sapiens) | EC50 ([1]; Homo sapiens, SK-OV-3, 48 h) | solubility (Solubility Assay (HPLC)) | EC50 [1]
1 | < 100 µM | ++ (50-90%) | C=C(NC(=O)c1csc(N2CCC[C@H](NC(=O)C3CCOCC3)C2)n1)C(=O)NC(=C)C(=O)OC [Compound 54, methyl (S)-2-(2-(2-(3-(tetrahydro-2H-pyran-4-carboxamido)piperidin-1-yl)thiazole-4-carboxamido)acrylamido)acrylate] | 25 to 100 µM | – | – | –
2 | < 100 µM | + (5-50%) | C=C(NC(=O)c1csc(-c2ccc(CNC(=O)CCCCCCl)cc2)n1)C(=O)NC(=C)C(=O)OC [Compound 37, Methyl 2-(2-(2-(4-((6-chlorohexanamido)methyl)phenyl)thiazole-4-carboxamido)acrylamido)acrylate] | 1 to 10 µM | – | – | –
3 | 100 to 1000 µM (≈ 52.6 to 526 µg/mL) | +++ (>90%) | C=C(NC(=O)c1csc(N2CCC(CNC(=O)CCCCCCl)CC2)n1)C(=O)NC(=C)C(=O)OC [Compound 40, Methyl 2-(2-(2-(4-((6-chlorohexanamido)methyl)piperidin-1-yl)thiazole-4-carboxamido)acrylamido)acrylate] | 10 to 25 µM | – | – | –
4 | < 100 µM | ++ (50-90%) | C=C(NC(=O)c1csc(N2C[C@@H](C)N(C(=O)OC(C)(C)C)[C@@H](C)C2)n1)C(=O)NC(=C)C(=O)OC [Compound 56, Tert-butyl (cis)-4-(4-((3-((3-methoxy-3-oxoprop-1-en-2-yl)amino)-3-oxoprop-1-en-2-yl)carbamoyl)thiazol-2-yl)-2,6-dimethylpiperazine-1-carboxylate] | 1 to 10 µM | – | – | –
5 | > 1000 µM | +++ (>90%) | C=C(NC(=O)c1csc(N2CCC(CNC(=O)COCCOC)CC2)n1)C(=O)NC(=C)C(=O)OC [Compound 41, Methyl 2-(2-(2-(4-((2-(2-methoxyethoxy)acetamido)methyl)piperidin-1-yl)thiazole-4-carboxamido)acrylamido)acrylate] | 10 to 25 µM | – | – | –
6 | < 100 µM | ++ (50-90%) | C=C(NC(=O)c1csc(-c2ccc(NC(=O)CCCCCCl)cc2)n1)C(=O)NC(=C)C(=O)OC [Compound 48, Methyl 2-(2-(2-(4-(6-chlorohexanamido)phenyl)thiazole-4-carboxamido)acrylamido)acrylate] | 1 to 10 µM | – | – | –
7 | < 100 µM | ++ (50-90%) | C=C(NC(=O)c1csc(-c2ccc(CNC(=O)OCC3CCOCC3)cc2)n1)C(=O)NC(=C)C(=O)OC [Compound 45, Methyl 2-(2-(2-(4-(((((tetrahydro-2H-pyran-4-yl)methoxy)carbonyl)amino)methyl)phenyl)thiazole-4-carboxamido)acrylamido)acrylate] | 1 to 10 µM | – | – | –
8 | < 100 µM | +++ (>90%) | C=C(NC(=O)c1csc(-c2ccc(COC(=O)NCCCOC)cc2)n1)C(=O)NC(=C)C(=O)OC [Compound 42, Methyl 2-(2-(2-(4-((((3-methoxypropyl)carbamoyl)oxy)methyl)phenyl)thiazole-4-carboxamido)acrylamido)acrylate] | 1 to 10 µM | – | – | –
9 | < 100 µM | + (5-50%) | C=C(NC(=O)c1csc(-c2ccc(CNC(=O)OCCCCCCN=[N+]=[N-])cc2)n1)C(=O)NC(=C)C(=O)OC [Compound 50, Methyl 2-(2-(2-(4-(((((6-azidohexyl)oxy)carbonyl)amino)methyl)phenyl)thiazole-4-carboxamido)acrylamido)acrylate] | 1 to 10 µM | – | – | –

Row | Structure (SMILES) | solubility (Solubility Assay (HPLC); [2]) | PRX3 Inhibition (Crosslink + Mono-adduct) (purified human PRX3) | EC50 ([1]; Homo sapiens) | EC50 ([1]; Homo sapiens, SK-OV-3, 48 h) | solubility (Solubility Assay (HPLC)) | EC50 [1]
10 | C=C(NC(=O)c1csc(-c2ccc(CNC(=O)OCCOCCNC(=O)OC(C)(C)C)cc2)n1)C(=O)NC(=C)C(=O)OC [Compound 49, Methyl 2-(2-(2-(4-(13,13-dimethyl-3,11-dioxo-4,7,12-trioxa-2,10-diazatetradecyl)phenyl)thiazole-4-carboxamido)acrylamido)acrylate] | < 100 µM | +++ (>90%) | – | 1 to 10 µM | – | –
11 | C=C(NC(=O)c1csc(N2CCN(C(=O)COCCOC)CC2)n1)C(=O)NC(=C)C(=O)OC [Compound 47, Methyl 2-(2-(2-(4-(2-(2-methoxyethoxy)acetyl)piperazin-1-yl)thiazole-4-carboxamido)acrylamido)acrylate] | > 1000 µM | ++ (50-90%) | – | 25 to 100 µM | – | –
12 | C=C(NC(=O)c1csc(-c2ccc(CNC(=O)CCCCCNC(=O)OC(C)(C)C)cc2)n1)C(=O)NC(=C)C(=O)OC [Compound 44, Methyl 2-(2-(2-(4-((6-((tert-butoxycarbonyl)amino)hexanamido)methyl)phenyl)thiazole-4-carboxamido)acrylamido)acrylate] | – | +++ (>90%) | – | – | + (<0.1 mM) | 1 to 10 µM
